Measured values: patent publication US20070015771A1, “Lonidamine analogs” (Threshold pharmaceuticals, Inc., priority 2004, published 2007)
pIC50: −log10 of the molar value. Where two headings read alike, the source gives them in different places.

Legend:
NCI-H460 cells = assay: Antiproliferation assay 3 days, NCI-H460 cells; format: cell-based; details: read-out: NCI-H460 cell line IC50
Procedure: (§1) To determine the effect of lonidamine analogs thereof on cell proliferation, the antiproliferative activity of these compounds was tested in a multi-well Alamar Blue based assay (at 3 days). Cell growth in the presence and absence of the test compound was compared, as measured by a fluoresence plate reader at excitation 550 nm and emission 590 nm (see Biosource International Inc., Tech Application Notes, Use of Alamar Blue in the measurement of Cell Viability and Toxity, Determining IC50). The following cell lines were tested: PWR-1E cells ((ATCC CRL-11611), 3500 cells/well/200 μl in Keratinocyte SFM medium (Gibco Products, Invitrogen Corporation, Carlsbad, Calif.)); DU-145 cells ((ATCC HTB-81), 4000 cells/well/200 μl in MEM Eagles medium (ATCC, Manassas, Va.)); PC3 cells ((ATCC CRL-1435), 4000 cells/200 μl in Modified HAM's F12 medium (ATCC, Manassas, Va.)); PNt2 cells ((Sigma-Aldrich, 95012613-1 VL), 4000 cells/well/200 μl in RPMI medium (Gibco Products, Invitrogen Corporation, Carlsbad, Calif.), BPH-1 ((DSMZ ACC-143), 4000 cells/well/200 μl in RPMI medium (Gibco Products, Invitrogen Corporation, Carlsbad, Calif), and NCI-H460 cells ((ATCC HTB-177), 4000 cells/well/200 μl in RPMI medium (Gibco Products, Invitrogen Corporation, Carlsbad, Calif.)). The cells were seeded in a 96 well plate in a medium specified above. After 24 hours, these plates were divided into 2 groups—Control group and 3 day treatment group. A test compound was added to each plate in the treatment groups at concentrations of […] as tabulated in Table 1 (in 2 μl 1 of 100% DMSO, final DMSO concentration 1% in all wells). For NCI-H460 cells, test compounds were added to each plate in the treatment groups at concentrations of 600, 300, 100, 30, 10, 3, and 1 μM (in 2 μl of 100% DMSO, final DMSO concentration 1% in all wells). The cells in the 3 day treatment group were incubated for 3 days, followed by staining with AlamarBlue. In the Control group, AlamarBlue was added to the plate at (i) day 0 and (ii) day 3 and measured to establish the control reading. […] For the NCI-H460 cells, the capacity of the cells to proliferate was measured 5 hours after addition of AlamarBlue using the same fluorescence plate reader as stated above.

PWR-1E cells = assay: Antiproliferation assay 3 days, PWR-1E cells (Example 49); format: cell-based; details: read-out: PWR1e cell line IC50
Procedure: as §1

H460 cells = assay: Antiproliferation assay (Alamar Blue), H460 cells; format: cell-based
Procedure: To determine the effect of lonidamine and analogs thereof on cell proliferation, the antiproliferative activity of these compounds was tested in a multi-well Alamar Blue based assay (at 2 h and 3 days). Cell growth in the presence and absence of the test compound (compounds 1-22) was compared, as measured by a fluorescence plate reader at excitation 550 nm and emission 590 nm (see Biosource International Inc., Tech Application Notes, Use of Alamar Blue in the measurement of Cell Viability and Toxicity, Determining IC50). H460 cells (ATCC HTB-177 ([…]), 4,000 cells/well/200 μl) and LNCap cells (ATCC CRL-1740, 6,000 cells/well/200 μl) were seeded in a 96 well plate in RPMI medium (Invitrogen Corporation, Carlsbad, Calif.). After 24 hours, these plates were divided into 3 groups—Control group, 2 h treatment group and 3 day treatment group. In the 2 h treatment group, after 2 h the cells were rinsed to remove the test compound and incubated for 3 days, followed by staining with AlamarBlue. The cells in the 3 day treatment group were incubated for 3 days, followed by staining with AlamarBlue. In the Control group, AlamarBlue was added to the plate at (i) day 0 and (ii) day 3 and measured to establish the control reading.

SH rat prostate = assay: 5 day systemic administration in male SH rats, prostate; format: in vivo; parameters: inhibition in vivo: dose or concentration left out as unconfirmed; details: for Prostate shrinkage: male SH rats, oral daily for 5 days at 50 mg/ml, day 6; for inhibition in vivo: Rattus norvegicus, po, 144 h, read-out: Prostate shrinkage
Procedure: (§2) The effect of test compounds (lonidamine and lonidamine analogs) on the SH rat prostate was determined as follows. The test compound was orally administered daily for 5 days to male, SH rat, (n=6, 14 weeks old, Charles River Labs) at 50 mg/ml concentrations (as a 0.5% carboxymethylcellulose formulation). The control rats received an equal amount of the vehicle ([…]). Blood samples were collected 2 hours after administration on day 6, for pharmokinetic analysis of the compounds. On day 6 the rats were sacrificed and the entire prostate and the individual lobes (e.g., the ventral, dorso-lateral, and anterior lobes) were removed and weighed to measure absolute weights. Relative weights of prostate and individual lobes were calculated by dividing the absolute weight by the total body weight of the […]. Relative weights of the entire prostate, the dorsal prostate, and the ventral prostate were calculated by dividing the absolute weight by the total weight of the mouse. The histomorphology of the prostate was also analyzed and compared to that of the control or untreated prostate.

testes = assay: 5 day systemic administration in male SH rats, testis; format: in vivo, rat; parameters: inhibition in vivo: dose or concentration left out as unconfirmed; details: for Testis shrinkage: male SH rats, oral daily for 5 days at 50 mg/ml, day 6; for inhibition in vivo: Rattus norvegicus, po, 144 h, read-out: Testis shrinkage
[1] = 5 day systemic administration in male SH rats, pharmacokinetic blood samples; format: in vivo, rat; details: oral daily for 5 days at 50 mg/ml, blood 2 hours after administration
Procedure: as §2

[2] = 3 day treatment, read-out: GI50 H460 cell 3 days
[3] = read-out: GI50 H460 cell 2 hr, 2 h treatment then 3 days incubation
[4] = Homo sapiens, PWR-1E, 72 h, 3 day treatment
[5] = Homo sapiens, NCI-H460, 72 h, 3 day treatment

SMILES | pIC50 (NCI-H460 cells; Homo sapiens, NCI-H460, 72 h) | pIC50 (PWR-1E cells; Homo sapiens, PWR-1E, 72 h) | pIC50 (PWR-1E cells; 3 day treatment) | other results
O=C(O)c1nn(Cc2cnc(Cl)c(Cl)c2)c2ccccc12 [Compound 87] | 3.49 |  |  | 
O=C(O)c1nn(Cc2ccccc2O)c2ccccc12 [Compound 76] |  | 3.54 |  | 
Cc1cc(Cn2nc(C(=O)O)c3ccccc32)n(C)n1 [Compound 75] | < 3.74 | < 3.52 |  | 
N#Cc1cc(Cl)ccc1Cn1nc(C(=O)O)c2ccccc21 [Compound 95] | 3.56 | 4.07 |  | 
O=C(O)c1nn(Cc2ccc(Cl)nc2)c2ccccc12 [Compound 94] | < 3.22 |  |  | 
O=C(O)c1nn(Cc2ccccc2Cl)c2ccccc12 [Compound 27] |  |  | 4.52 | 
O=C(Nc1ccccn1)c1nn(Cc2ccc(Cl)cc2Cl)c2ccccc12 [Compound 7] |  |  |  | GI50 (H460 cells; [2]): 20 µM; GI50 (H460 cells; [3]): > 400 µM
O=C(NCCO)c1nn(Cc2ccc(Cl)cc2Cl)c2ccccc12 [Compound 10] |  |  | 4.85 | GI50 (H460 cells; [2]): 50 µM; GI50 (H460 cells; [3]): 78 µM
Cc1ccc2c(c1)c(C(=O)NO)nn2Cc1ccc(Cl)cc1Cl [Compound 52] |  |  | 6.47 | 
CNC(=O)c1nn(Cc2c(Cl)cccc2Cl)c2ccccc12 [Compound 37] |  |  | 4.44 | 
O=C(O)c1nn(Cc2ccc(-c3ccccc3)cc2)c2ccccc12 [Compound 22] |  |  | 4.60 | GI50 (H460 cells; [2]): 158 µM; GI50 (H460 cells; [3]): > 400 µM
O=C(c1nn(Cc2ccc(Cl)cc2Cl)c2ccccc12)N1CCOCC1 [Compound 48] |  |  | < 5.00 | Prostate shrinkage (SH rat prostate): 3.3%; Testis shrinkage (testes): 4.3%
O=C(O)c1nn(S(=O)(=O)c2ccc(Cl)cc2Cl)c2ccccc12 [Compound 104] |  |  | 4.72 | pIC50 (NCI-H460 cells; 3 day treatment): 3.71
O=C(O)c1nn(Cc2ccc3c(c2)OCO3)c2ccccc12 [Compound 74] | 3.54 | < 4.00 |  | 
CONC(=O)c1nn(Cc2ccc(Cl)cc2Cl)c2ccc(C)cc12 [Compound 57] |  |  | 4.41 | 
O=C(NC1CC1)c1nn(Cc2c(Cl)cccc2Cl)c2ccccc12 [Compound 46] |  |  | < 4.52 | 
O=C(O)c1nc(Cc2ccc(Cl)cc2Cl)n2ccccc12 [Compound 89] |  |  | 5.00 | pIC50 (NCI-H460 cells; 3 day treatment): 4.39
O=C(O)c1nn(Cc2cccnc2)c2ccccc12 [Compound 85] | < 3.22 |  |  | 
O=C(Nc1cccnc1)c1nn(Cc2ccc(Cl)cc2Cl)c2ccccc12 [Compound 51] |  |  |  | Prostate shrinkage (SH rat prostate): 8.7%; PK [1]: 0.45 µg/mL; Testis shrinkage (testes): 2.2%
O=C(O)c1nn(Cc2ccncc2)c2ccccc12 [Compound 86] | < 3.22 |  |  | 
O=C(NCCN1CCOCC1)c1nn(Cc2c(Cl)cccc2Cl)c2ccccc12 [Compound 43] |  |  | 4.35 | 
CONC(=O)c1nn(Cc2ccc(Cl)cc2Cl)c2ccccc12 [Compound 53] |  |  |  | Prostate shrinkage (SH rat prostate): 6.9%; PK [1]: 1 µg/mL; Testis shrinkage (testes): 9.2%
O=C(O)c1cn(Cc2cc(Cl)ccc2Cl)c2ccccc12 [Compound 100] | 3.90 |  |  | 
O=C(O)c1nn(Cc2cc(Cl)ccc2Cl)c2ccccc12 [Compound 83] | 3.90 | 4.42 |  | inhibition in vivo (SH rat prostate): 31.7%; inhibition in vivo (testes): 48%

SMILES | pIC50 (NCI-H460 cells; Homo sapiens, NCI-H460, 72 h) | pIC50 (PWR-1E cells; Homo sapiens, PWR-1E, 72 h) | pIC50 (PWR-1E cells; 3 day treatment) | other results
O=C(O)c1cn(Cc2ccc(Cl)cc2Cl)c2ccccc12 [Compound 78] | 4.05 | 4.66 |  | inhibition in vivo (SH rat prostate): 10.1%; inhibition in vivo (testes): 5.7%
Cc1noc(C)c1Cn1nc(C(=O)O)c2ccccc21 [Compound 71] |  | < 3.52 |  | 
O=C(O)c1nn(Cc2cc(Cl)ccc2F)c2ccccc12 [Compound 103] | 3.66 | 3.88 |  | 
O=Cc1nc(Cc2ccc(Cl)cc2Cl)n2ccccc12 [Compound 88] |  |  |  | pIC50 (PWR-1E cells; [4]): 4.92; pIC50 (NCI-H460 cells; [5]): 4.32
OCc1nc(Cc2ccc(Cl)cc2Cl)n2ccccc12 [Compound 92] |  |  |  | pIC50 (PWR-1E cells; [4]): 4.96; pIC50 (NCI-H460 cells; [5]): 4.37
NNC(=O)c1nn(Cc2c(Cl)cccc2Cl)c2ccccc12 [Compound 44] |  |  | < 5.00 | 
O=C(O)c1nn(Cc2ccccn2)c2ccccc12 [Compound 84] | < 3.22 |  |  | 
CC(C)NC(=O)c1nn(Cc2ccccc2)c2ccccc12 [Compound 50] |  |  | 4.64 | 
O=C(OC1O[C@H](C(=O)O)[C@@H](O)[C@H](O)[C@H]1O)c1nn(Cc2ccc(Cl)cc2Cl)c2ccccc12 (some centres unmarked) [Compound 15] |  | 4.10 |  | GI50 (H460 cells; Homo sapiens, NCI-H460, 72 h, 3 day treatment, read-out: GI50 H460 cell 3 days): 316 µM; GI50 (H460 cells; Homo sapiens, NCI-H460, read-out: GI50 H460 cell 2 hr, 2 h treatment then 3 days incubation): > 400 µM
COc1ccccc1Cn1nc(C(=O)O)c2ccccc21 [Compound 72] |  | 3.61 |  | 
O=C(O)c1nn(C(=O)c2ccc(Cl)cc2Cl)c2ccccc12 [Compound 98] |  |  |  | pIC50 (PWR-1E cells; [4]): 5.40
O=Cc1nn(Cc2ccc(Cl)cc2Cl)c2ccccc12 [Compound 61] |  | 5.82 |  | 
O=C(Nc1nccs1)c1nn(Cc2ccc(Cl)cc2Cl)c2ccccc12 [Compound 9] |  |  | < 4.00 | GI50 (H460 cells; [2]): > 400 µM; GI50 (H460 cells; [3]): > 400 µM
O=C(O)c1nn(Cc2ccc(Cl)c(Cl)c2)c2ccccc12 [Compound 82] | 3.89 | 4.44 |  | inhibition in vivo (SH rat prostate): 5%; inhibition in vivo (testes): -1.1%
NC(=O)c1nn(Cc2c(Cl)cccc2Cl)c2ccccc12 [Compound 25] |  | < 4.00 |  | 
CC(c1ccc(Cl)cc1Cl)n1nc(C(=O)O)c2ccccc21 (centres unmarked) [Compound 67] | 3.83 | 4.68 |  | inhibition in vivo (SH rat prostate): 18.2%; inhibition in vivo (testes): 34.9%
O=C(O)c1nn(Cc2ccc(O)cc2)c2ccccc12 [Compound 77] |  | < 4.00 |  | 
O=C(O)c1nn(Cc2cc(C(F)(F)F)ccc2Cl)c2ccccc12 [Compound 106] | 5.40 |  |  | 
O=C(O)c1c2ccccc2nn1S(=O)(=O)c1ccc(Cl)cc1Cl [Compound 105] |  |  | 4.68 | pIC50 (NCI-H460 cells; 3 day treatment): 3.74
O=C(Nc1ccc(F)c(F)c1)c1nn(Cc2ccc(Cl)cc2Cl)c2ccccc12 [Compound 8] |  |  | < 5.52 | GI50 (H460 cells; [2]): 316 µM; GI50 (H460 cells; [3]): > 400 µM
O=C(O)c1nn(Cc2cc3c(cc2Cl)OCO3)c2ccccc12 [Compound 69] |  | 3.84 |  | 
CN(C)C(=O)c1nn(Cc2ccc(Cl)cc2Cl)c2ccccc12 [Compound 49] |  |  | < 4.00 | 
O=C(O)c1nn(Cc2ccc(Cl)nc2)c2ccccc12 [Compound 73] |  | < 3.52 |  | 
O=C(NO)c1nn(Cc2ccc(Cl)cc2Cl)c2ccc(F)cc12 [Compound 47] |  |  | 5.25 | 
